Consider 31 compounds from patent US20260166039A1 (SCHRÖDINGER, INC., priority 2022, published 2026).

In one assay the target is T1, Wee1 kinase domain (Homo sapiens, UniProt P30291).
T1 construct: Wee1 kinase domain was purchased from Carna (catalog #05-177); purchased Carna 05-177
T1 sequence (P30291 299-569 limits assumed): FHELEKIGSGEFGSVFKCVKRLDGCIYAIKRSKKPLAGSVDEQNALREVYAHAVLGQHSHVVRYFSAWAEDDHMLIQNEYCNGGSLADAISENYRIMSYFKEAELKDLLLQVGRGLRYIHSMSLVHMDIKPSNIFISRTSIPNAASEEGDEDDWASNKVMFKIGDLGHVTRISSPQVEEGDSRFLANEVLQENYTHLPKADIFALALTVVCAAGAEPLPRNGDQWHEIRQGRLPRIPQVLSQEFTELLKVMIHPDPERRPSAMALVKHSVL
Put plainly: Wee1 Kinase Biochemical Assay (ADP-Glo). The note with it: 1 nM Wee1 enzyme, 15 uM ATP, 4 hours at 25° C. The method, boiled down:
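Kinase domain (1 nM) incubated 4 h at 25 °C with 15 uM ATP and 2 ng/mL Poly(Lys,Tyr 4:1) in 40 mM Tris-HCl, 20 mM MgCl2, 0.1 mg/mL BSA, 2 mM DTT. ADP formation read by ADP-Glo luminescence; percent inhibition normalized to DMSO and saturating reference-inhibitor controls.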
`CC1(C)C[C@H]2N(c3cccc(N=S(C)(C)=O)n3)c3nc(Nc4cncnc4)ncc3[C@@]2(C)CO1` (single isomer, unassigned) [Example 817] showed a concentration for half-maximal inhibition (IC50) below 10 nM.

The same assay, now with this note: Wee1 kinase domain, 15 uM ATP, ADP-Glo.
On to `CC1(C)C[C@@H]2N(c3cccc(N=S(C)(C)=O)n3)c3nc(Nc4ccc(O[C@H]5CCNC5)cc4)ncc3[C@]2(C)CO1` (single isomer, unassigned) [Example 154], for which the IC50 lay within 100 to 1000 nM. Take `C[C@H]1COC(=O)N1c1cccc(N2c3nc(Nc4ccc(O[C@H]5CCN(C)C5)nc4)ncc3[C@]3(C)COC(C)(C)C[C@H]23)n1` (single isomer, unassigned) [Example 280]: the IC50 is 100 to 1000 nM. Same read-out and setting: next, `CNCc1cccc(N2c3nc(Nc4ccc([C@]5(C)CCN(C)C5=O)cc4)ncc3[C@]3(C)COC(C)(C)C[C@H]23)n1` (single isomer, unassigned) [Example 77]: 100 to 1000 nM. With `CC1(C)C[C@@H]2N(c3cccc(N=S(C)(C)=O)n3)c3nc(Nc4cnn(C5CCOCC5)c4)ncc3[C@]2(C)CO1` (single isomer, unassigned) [Example 186], the IC50 was in the range of 100 to 1000 nM.

The compound `CN1CCC[C@H]1c1ccc(Nc2ncc3c(n2)N(c2cccc(N=S(C)(C)=O)n2)[C@H]2CC(C)(C)OC[C@@]32C)cn1` (single isomer, unassigned) [Example 215] showed an IC50 of 100 to 1000 nM.

`C[C@H]1COC(=O)N1c1cccc(N2c3nc(Nc4ccc([C@H]5CCNC5)nc4)ncc3[C@]3(C)COC(C)(C)C[C@H]23)n1` (single isomer, unassigned) [Example 258] came in with an IC50 of 100 to 1000 nM. Same read-out and setting: in the case of `CNCc1cccc(N2c3nc(Nc4ccc(N5CCN(C)CC5)cc4)ncc3[C@]3(C)COC(C)(C)C[C@H]23)n1` (single isomer, unassigned) [Example 93] it was 10 to 100 nM; in that of `C[C@H]1COC(=O)N1c1cccc(N2c3nc(Nc4ccc(N5CCN(C)CC5)nc4)ncc3[C@]3(C)COC(C)(C)C[C@H]23)n1` (single isomer, unassigned) [Example 240], 100 to 1000 nM. On the same count and under the same terms, next, `C[C@H]1COC(=O)N1c1cccc(N2c3nc(Nc4ccc(OC5CCNCC5)nc4)ncc3[C@]3(C)COC(C)(C)C[C@H]23)n1` (single isomer, unassigned) [Example 324]: 100 to 1000 nM; `C[C@H]1COC(=O)N1c1cccc(N2c3nc(Nc4ccc(OC5CCN(C)CC5)nc4)ncc3[C@]3(C)COC(C)(C)C[C@H]23)n1` (single isomer, unassigned) [Example 334]: 100 to 1000 nM; `CNCc1cccc(N2c3nc(Nc4ccc(C5CCN(C)CC5)c(C)c4)ncc3[C@]3(C)COC(C)(C)C[C@H]23)n1` (single isomer, unassigned) [Example 71]: 100 to 1000 nM. Same read-out and setting: next, `CN1Cc2cc(Nc3ncc4c(n3)N(c3cccc(N=S(C)(C)=O)n3)[C@H]3CC(C)(C)OC[C@@]43C)cnc2C1` (single isomer, unassigned) [Example 187]: at least 1000 nM; `C[C@H]1COC(=O)N1c1cccc(N2c3nc(N)ncc3[C@]3(C)COC(C)(C)C[C@H]23)n1` (single isomer, unassigned) [Example 357]: 100 to 1000 nM.

Staying with this assay, now noted: class symbols; 1 nM Wee1 enzyme, 15 uM ATP, 4 hours at 25° C.
For `CNCc1cccc(N2c3nc(NC(=O)[C@H]4C[C@@H]4c4cccnc4)ncc3[C@@]3(C)COC(C)(C)C[C@@H]23)n1` [Example 769, (1S,2S)-2-(pyridin-3-yl)-N-((4bR,8aR)-4b,7,7-trimethyl-9-(6-((methylamino)methyl)pyridin-2-yl)-4b,5,7,8,8a,9-hexahydropyrano[3′,4′:4,5]pyrrolo[2,3-d]pyrimidin-2-yl)cyclopropane-1-carboxamide], the IC50 lay within 100 to 1000 nM. On the same count and under the same terms, in the case of `CN[C@H](C)c1cc(C)nc(N2c3nc(Nc4ccc(N5CCOCC5)cc4)ncc3[C@@]3(C)COC(C)(C)C[C@@H]23)c1` (single isomer, unassigned) [Example 557] it was below 10 nM; in that of `Cc1cc(Nc2ncc3c(n2)N(c2cccc(N4CCOC4=O)n2)[C@H]2CC(C)(C)OC[C@@]32C)ccc1N1C[C@H]2C[C@@H]1CN2C` [Example 661, 3-(6-((4bS,8aS)-4b,7,7-trimethyl-2-((3-methyl-4-((1R,4R)-5-methyl-2,5-diazabicyclo[2.2.1]heptan-2-yl)phenyl)amino)-4b,7,8,8a-tetrahydropyrano[3′,4′:4,5]pyrrolo[2,3-d]pyrimidin-9(5H)-yl)pyridin-2-yl)oxazolidin-2-one], 10 to 100 nM.

`CN1CC(c2ccc(Nc3ncc4c(n3)N(c3cccc(N5CCOC5=O)n3)[C@H]3CC(C)(C)OC[C@@]43C)cc2)C1` [Example 699, 3-(6-((4bS,8aS)-4b,7,7-trimethyl-2-((4-(1-methylazetidin-3-yl)phenyl)amino)-4b,7,8,8a-tetrahydropyrano[3′,4′:4,5]pyrrolo[2,3-d]pyrimidin-9(5H)-yl)pyridin-2-yl)oxazolidin-2-one] came in with an IC50 of 100 to 1000 nM. In turn, `CNCc1cccc(N2c3nc(Nc4ccc(=O)n(C)c4)ncc3[C@@]3(C)COC(C)(C)C[C@@H]23)n1` (single isomer, unassigned) [Example 462] gave an IC50 of 10 to 100 nM.

`CC1(C)C[C@H]2N(c3cccc(C(C)(C)O)n3)c3nc(Nc4ccc(O[C@@H]5CCNC5)cc4)ncc3[C@@]2(C)CO1` (single isomer, unassigned) [Example 418]: the IC50 fell in the range of 10 to 100 nM. Still for that read-out and setting: in the case of `CN1C[C@H]2C[C@@H]1CN2c1ccc(Nc2ncc3c(n2)N(c2cccc(N4C(=O)CCC4(C)C)n2)[C@@H]2CC(C)(C)OC[C@]32C)cc1` [Example 797, 5,5-dimethyl-1-(6-((4bR,8aR)-4b,7,7-trimethyl-2-((4-((1R,4R)-5-methyl-2,5-diazabicyclo[2.2.1]heptan-2-yl)phenyl)amino)-4b,7,8,8a-tetrahydropyrano[3′,4′:4,5]pyrrolo[2,3-d]pyrimidin-9(5H)-yl)pyridin-2-yl)pyrrolidin-2-one] it was below 10 nM; in that of `CN1C[C@H]2C[C@@H]1CN2c1ccc(Nc2ncc3c(n2)N(c2cccc(C(C)(C)O)n2)[C@H]2CC(C)(C)OC[C@@]32C)cc1` (single isomer, unassigned) [Example 414], 100 to 1000 nM.

The compound `CN1C[C@@H]2C[C@H]1CN2c1ccc(Nc2ncc3c(n2)N(c2cccc(N4CCOC4=O)n2)[C@H]2CC(C)(C)OC[C@@]32C)cc1F` [Example 677, 3-(6-((4bS,8aS)-2-((3-fluoro-4-((1S,4S)-5-methyl-2,5-diazabicyclo[2.2.1]heptan-2-yl)phenyl)amino)-4b,7,7-trimethyl-4b,7,8,8a-tetrahydropyrano[3′,4′:4,5]pyrrolo[2,3-d]pyrimidin-9(5H)-yl)pyridin-2-yl)oxazolidin-2-one] registered an IC50 of 10 to 100 nM.

The compound `CNCc1cccc(N2c3nc(Nc4ccc(N5CCN(C)C(=O)C5)cc4)ncc3[C@]3(C)COC(C)(C)C[C@H]23)n1` (single isomer, unassigned) [Example 449] came in with an IC50 of 10 to 100 nM. `CN1CC[C@H](n2ccc(Nc3ncc4c(n3)N(c3cccc(N=S(C)(C)=O)n3)[C@@H]3CC(C)(C)OC[C@]43C)cc2=O)C1` [Example 805, 4-(((4bR,8aR)-9-(6-((dimethyl(oxo)-16-sulfaneylidene)amino)pyridin-2-yl)-4b,7,7-trimethyl-4b,5,7,8,8a,9-hexahydropyrano[3′,4′:4,5]pyrrolo[2,3-d]pyrimidin-2-yl)amino)-1-((S)-1-methylpyrrolidin-3-yl)pyridin-2(1H)-one] yielded an IC50 below 10 nM. As to `CN1CC[C@@H](c2ccc(Nc3ncc4c(n3)N(c3cccc(N5CCOC5=O)n3)[C@H]3CC(C)(C)OC[C@@]43C)cc2)C1` (single isomer, unassigned) [Example 604], the IC50 was 10 to 100 nM. In turn, `CNCc1cccc(N2c3nc(NC(=O)[C@H]4C[C@@H]4c4cnn(C)c4)ncc3[C@@]3(C)COC(C)(C)C[C@@H]23)n1` [Example 763, (1S,2S)-2-(1-methyl-1H-pyrazol-4-yl)-N-((4bR,8aR)-4b,7,7-trimethyl-9-(6-((methylamino)methyl)pyridin-2-yl)-4b,5,7,8,8a,9-hexahydropyrano[3′,4′:4,5]pyrrolo[2,3-d]pyrimidin-2-yl)cyclopropane-1-carboxamide] gave an IC50 of 10 to 100 nM. On to `CN1CC[C@@H]2CN(c3ccc(Nc4ncc5c(n4)N(c4cccc(C(C)(C)O)n4)[C@H]4CC(C)(C)OC[C@@]54C)cc3)C[C@@H]21` (single isomer, unassigned) [Example 438], for which the IC50 lay in the range of 100 to 1000 nM. `CNCc1cccc(N2c3nc(Nc4ccn(C)c(=O)c4)ncc3[C@@]3(C)COC(C)(C)C[C@@H]23)n1` (single isomer, unassigned) [Example 456] had an IC50 of 10 to 100 nM.

`CNCc1cccc(N2c3nc(Nc4cnnc(C)c4)ncc3[C@]3(C)COC(C)(C)C[C@H]23)n1` (single isomer, unassigned) [Example 477]: the IC50 was 100 to 1000 nM. In the case of `CN1C[C@@H]2C[C@H]1CN2c1ccc(Nc2ncc3c(n2)N(c2cccc(C(C)(C)O)n2)[C@H]2CC(C)(C)OC[C@@]32C)cc1` (single isomer, unassigned) [Example 415], the IC50 lay in the range of 100 to 1000 nM.
